Measured values taken from ChEMBL document CHEMBL1139353, “Discovery of a new class of potential multifunctional atypical antipsychotic agents targeting dopamine D3 and serotonin 5-HT1A and 5-HT2A receptors: design, synthesis, and effects on behavior” (J Med Chem, 2009).
pIC50, pKi: −log10 of the molar value. Calls of active or inactive are those of the source. The calls are words filed in the database; no cut-off is given here.

Columns and labels:
Rattus norvegicus [1] = assay: Induction of c-Fos protein expression in ip dosed rat dorsolateral striatum after 1 hr by light microscopy; type: functional, organism-based
D(3) dopamine receptor = D(3) dopamine receptor (Homo sapiens, UniProt P35462); assay: biochemical
Sequence of D(3) dopamine receptor (P35462 whole entry): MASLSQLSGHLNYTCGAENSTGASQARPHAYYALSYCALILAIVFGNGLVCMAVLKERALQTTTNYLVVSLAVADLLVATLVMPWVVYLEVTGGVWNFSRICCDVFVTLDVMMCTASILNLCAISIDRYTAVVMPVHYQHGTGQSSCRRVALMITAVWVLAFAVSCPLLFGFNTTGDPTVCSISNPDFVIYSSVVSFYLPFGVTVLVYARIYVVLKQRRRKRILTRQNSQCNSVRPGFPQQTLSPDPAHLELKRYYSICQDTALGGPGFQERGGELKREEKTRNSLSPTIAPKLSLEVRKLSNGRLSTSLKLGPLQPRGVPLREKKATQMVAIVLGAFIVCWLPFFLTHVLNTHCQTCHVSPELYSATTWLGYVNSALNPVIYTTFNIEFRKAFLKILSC
Description: Displacement of [3H]7OH-DPAT from dopamine D3 receptor expressed in Sf9 cells by scintillation spectrometry

[2] = target: T1, 5-hydroxytryptamine receptor 1A (Rattus norvegicus, UniProt P19327); assay: biochemical
T1 sequence (P19327 whole entry): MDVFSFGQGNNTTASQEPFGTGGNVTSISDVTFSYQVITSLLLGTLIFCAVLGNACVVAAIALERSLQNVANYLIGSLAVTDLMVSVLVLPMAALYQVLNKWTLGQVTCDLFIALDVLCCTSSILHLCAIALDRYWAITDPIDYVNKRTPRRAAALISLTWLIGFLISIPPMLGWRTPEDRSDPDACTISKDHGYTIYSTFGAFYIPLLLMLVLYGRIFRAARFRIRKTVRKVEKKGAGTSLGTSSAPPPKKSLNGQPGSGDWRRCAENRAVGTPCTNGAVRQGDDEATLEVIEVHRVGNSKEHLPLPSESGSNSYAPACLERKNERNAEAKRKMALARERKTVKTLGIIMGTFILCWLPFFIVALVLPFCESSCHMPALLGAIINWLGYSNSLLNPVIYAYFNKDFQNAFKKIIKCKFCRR
Description: Displacement of [3H]8OH-DPAT from 5HT1A receptor in CRL:CD(SD)BR-COBS rat hippocampus by scintillation spectrometry

Rattus norvegicus [3] = assay: Induction of c-Fos protein expression in rat nucleus accumbens shell at 3 mg/kg, ip after 1 hr by light microscopy; type: functional, organism-based; parameters: dose 3 mg/kg
[4] = Displacement of [3H]idazoxan from imidazole I2 receptor in rabbit kidney by filtration technique; parameters: species or system Oryctolagus cuniculus
Mus musculus [5] = assay: Antipsychotic activity in NMRI mouse assessed as reduction in phencyclidine-induced locomotor activity at 10 mg/kg administered 30 mins prior to testing measured for 60 mins; type: functional, organism-based; parameters: dose 10 mg/kg
Mus musculus [6] = species on record: Mus musculus; assay: animal or person; details: NMRI
Description: (§1) Antipsychotic activity in NMRI mouse assessed as reduction in methamphetamine-induced locomotor activity administered 30 mins prior to testing measured for 60 mins

[7] = target: T2, 5-hydroxytryptamine receptor 2A (Rattus norvegicus, UniProt P14842); assay: Intrinsic activity at 5HT2A receptor in Wistar rat aorta; type: tissue-based
T2 sequence (P14842 whole entry): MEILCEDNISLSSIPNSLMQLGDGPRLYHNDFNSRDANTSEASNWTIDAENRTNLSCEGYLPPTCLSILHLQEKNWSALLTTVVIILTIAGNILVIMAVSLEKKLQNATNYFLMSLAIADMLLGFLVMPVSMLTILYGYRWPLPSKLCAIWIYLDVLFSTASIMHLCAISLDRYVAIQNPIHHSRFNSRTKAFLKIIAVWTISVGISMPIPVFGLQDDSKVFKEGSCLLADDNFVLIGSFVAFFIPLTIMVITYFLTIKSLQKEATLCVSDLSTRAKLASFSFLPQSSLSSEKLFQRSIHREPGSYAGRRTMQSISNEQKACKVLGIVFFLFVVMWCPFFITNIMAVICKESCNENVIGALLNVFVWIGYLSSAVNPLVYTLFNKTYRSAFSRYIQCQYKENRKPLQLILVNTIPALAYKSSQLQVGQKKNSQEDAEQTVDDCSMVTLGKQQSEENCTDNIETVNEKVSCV

Mus musculus [8] = assay: Antipsychotic activity in NMRI mouse assessed as reduction in methamphetamine-induced locomotor activity at 10 mg/kg administered 30 mins prior to testing measured for 60 mins relative to control; type: functional, organism-based; parameters: dose 10 mg/kg
[9] = Intrinsic activity at 5HT1A receptor in Duncan Hartley guinea pig ileum; type: tissue-based; details: Cavia porcellus
Mus musculus [10] = details: NMRI
Description: as §1

Mus musculus [11] = species on record: Mus musculus; assay: animal or person; details: NMRI; remark: listed apart in the source
Description: Antipsychotic activity in NMRI mouse assessed as reduction in phencyclidine-induced locomotor activity administered 30 mins prior to testing measured for 60 mins

[12] = target: T2, 5-hydroxytryptamine receptor 2A
Description: Displacement of [3H]ketanserin from 5HT2A receptor in CRL:CD(SD)BR-COBS rat cortex by scintillation spectrometry

Rattus norvegicus [13] = assay: Induction of c-Fos protein expression in rat dorsolateral striatum at 30 mg/kg, ip after 1 hr by light microscopy; type: functional, organism-based; parameters: dose 30 mg/kg
Mus musculus [14] = assay: Sedative activity in NMRI mouse assessed as reduction in spontaneous locomotor activity at 10 mg/kg administered 30 mins prior to testing relative to control; type: organism-based; parameters: dose 10 mg/kg; details: in vivo, 0.5 h
D(1A) dopamine receptor = D(1A) dopamine receptor (Rattus norvegicus, UniProt P18901)
Sequence of D(1A) dopamine receptor (P18901 whole entry): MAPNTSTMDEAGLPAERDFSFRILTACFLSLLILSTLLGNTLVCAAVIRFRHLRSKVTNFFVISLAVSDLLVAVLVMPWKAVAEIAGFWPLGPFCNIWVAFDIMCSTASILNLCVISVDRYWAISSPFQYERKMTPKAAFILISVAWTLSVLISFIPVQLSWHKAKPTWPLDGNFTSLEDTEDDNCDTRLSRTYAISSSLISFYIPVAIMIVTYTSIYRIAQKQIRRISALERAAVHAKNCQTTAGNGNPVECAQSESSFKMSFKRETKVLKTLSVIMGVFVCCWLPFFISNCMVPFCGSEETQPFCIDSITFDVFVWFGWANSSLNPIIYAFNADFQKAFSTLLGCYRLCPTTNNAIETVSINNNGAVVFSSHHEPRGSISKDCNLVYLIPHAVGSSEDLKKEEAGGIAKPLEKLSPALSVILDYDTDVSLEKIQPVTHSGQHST
Description: Displacement of [3H]SCH23390 from dopamine D1 receptor in CRL:CD(SD)BR-COBS rat striatum by scintillation spectrometry

Mus musculus [15] = species on record: Mus musculus; details: in vivo, 0.5 h
Description: Sedative activity in NMRI mouse assessed as reduction in spontaneous locomotor activity administered 30 mins prior to testing

Rattus norvegicus [16] = assay: Induction of c-Fos protein expression in rat nucleus accumbens core subregion at 10 mg/kg, ip after 1 hr by light microscopy; type: functional, organism-based; parameters: dose 10 mg/kg
Rattus norvegicus [17] = assay: Induction of c-Fos protein expression in rat nucleus accumbens core subregion at 3 mg/kg, ip after 1 hr by light microscopy; type: functional, organism-based; parameters: dose 3 mg/kg

For `Cc1cccc(N2CCN(CCCCNC(=O)c3cc4ccccc4o3)CC2)c1`, the Activity (Rattus norvegicus [1]) was “Dose-dependent effect”, the pKi (D(3) dopamine receptor) was 8.35 and the pKi [2] was 7.92. For the same molecule, the Activity (Rattus norvegicus [3]) was “Active”, the pKi [4] was 6.86 and the Activity (Mus musculus [5]) was “Active”. The ED50 (Mus musculus [6]) was 2.1 mg/kg, the pIC50 [7] was 6.64 and the Activity (Mus musculus [8]) was “Active”. The pIC50 [9] was 6.74, the Activity (Mus musculus [10]) was “Dose-dependent effect” and the ED50 (Mus musculus [11]) was 2.6 mg/kg. For the same molecule, the pKi [12] was 7.82, the Activity (Rattus norvegicus [13]) was “Active” and the Activity (Mus musculus [14]) was “Toxic”. For the same molecule, the pKi (D(1A) dopamine receptor) was 5.48, the ED50 (Mus musculus [15]) was 5.5 mg/kg and the Activity (Rattus norvegicus [16]) was “Active”. For the same molecule, the Activity (Rattus norvegicus [17]) was “inactive”.
